Measured values published in ChEMBL document CHEMBL1201862, “PubChem BioAssay data set” (2004).
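Exposure lasted 48 hours, with cells grown in 96-well plates and compounds tested at five concentrations. GI50 = concentration required for 50% inhibition of growth.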 Activity calls are given as the source filed them. Rule as the data show it: active = GI50 up to about 1.1 µM and inactive = higher.

Assays:
Assay in all cases: inhibition of tumour cell growth, NCI panel, 48 h
[1] = test system: A549
[2] = test system: CAKI-1
[3] = test system: HCT-116
[4] = test system: HOP-92
[5] = test system: NCI-H23
[6] = test system: NCI-H522
[7] = test system: OVCAR-5
[8] = test system: OVCAR-8
[9] = test system: SN12C
[10] = test system: SNB-75
[11] = test system: SW-620
[12] = test system: TK-10
[13] = test system: UACC-257
[14] = test system: UACC-62
[15] = test system: ACHN
[16] = test system: SK-MEL-28

Measured: GI50

O=C(c1ccccc1)N1C2CCC1C(C(F)(F)F)=C2C(F)(F)F
inactive: [1] > 100 µM | [2] > 100 µM | [3] > 100 µM | [4] > 100 µM | [5] > 100 µM | [6] > 100 µM | [7] > 100 µM | [8] > 100 µM | [9] > 100 µM | [10] > 100 µM | [11] > 100 µM | [12] > 100 µM | [13] > 100 µM | [14] > 100 µM

COc1c(OC(C)=O)cc2c(OC(C)=O)c1CC(C)CC(OC)C(O)C(C)/C=C(\C)C(OC(N)=O)C(OC)/C=C\C=C(/C)C(=O)N2 (stereo not given)
inactive: [1] > 71.3 µM | [15] > 100 µM | [2] > 100 µM | [3] > 55.5 µM | [4] 96.8 µM | [5] > 100 µM | [6] 10.7 µM | [7] > 100 µM | [8] > 65 µM | [16] > 100 µM | [9] 69.5 µM | [10] > 100 µM | [11] 24 µM | [12] > 81.8 µM | [13] > 100 µM | [14] > 100 µM

CCOC(=O)C1C(=O)c2ccccc2CN1Cc1ccccc1 (stereo not given)
inactive: [1] > 100 µM | [15] > 100 µM | [2] > 100 µM | [3] > 100 µM | [4] > 100 µM | [5] > 100 µM | [6] > 100 µM | [7] > 100 µM | [8] > 100 µM | [16] > 100 µM | [9] > 100 µM | [10] > 100 µM | [11] > 100 µM | [12] > 100 µM | [13] > 100 µM | [14] > 100 µM

CCOCc1cc(=O)c2cc3c(cc2o1)OC(C)(C)CC3
inactive: [1] > 100 µM | [15] > 100 µM | [2] > 100 µM | [3] > 100 µM | [4] 45.7 µM | [5] > 100 µM | [6] > 100 µM | [7] > 100 µM | [8] > 100 µM | [9] > 100 µM | [10] > 100 µM | [11] > 100 µM | [12] > 100 µM | [13] 65.3 µM | [14] > 100 µM

CS(=O)(=O)OCCn1cnc2nc(NC(=O)c3ccccc3)[nH]c(=O)c21
inactive: [1] > 100 µM | [15] > 100 µM | [2] > 100 µM | [3] > 100 µM | [4] > 100 µM | [6] > 100 µM | [7] > 100 µM | [8] > 100 µM | [16] > 100 µM | [9] > 100 µM | [10] > 100 µM | [11] > 100 µM | [12] > 100 µM | [13] > 100 µM | [14] > 100 µM

COc1cc(C2=NN(C)C(c3ccc([N+](=O)[O-])o3)C2)cc(OC)c1OC (stereo not given)
inactive: [1] > 100 µM | [15] > 100 µM | [2] > 100 µM | [3] 48.8 µM | [4] 45.5 µM | [5] > 100 µM | [6] 43.7 µM | [7] > 100 µM | [8] > 100 µM | [16] 79.8 µM | [9] 83.8 µM | [10] 83.2 µM | [11] 11 µM | [12] > 100 µM | [13] > 100 µM | [14] 83.2 µM

Fc1ccc(C2SCc3nc4ccccc4n32)cc1 (stereo not given)
inactive: [1] 45.3 µM | [15] 34.8 µM | [2] 36.8 µM | [3] 32.4 µM | [4] 19.9 µM | [5] 28.9 µM | [6] 14.1 µM | [7] 21.4 µM | [8] 49 µM | [16] 23.6 µM | [9] 27 µM | [10] 3.1 µM | [11] 74.6 µM | [12] 24.4 µM | [14] > 10 µM

CC(C)C12Cc3c(ccc4ccccc34)OC1(C)Oc1ccc3ccccc3c1C2 (stereo not given)
inactive: [1] > 100 µM | [15] > 100 µM | [2] > 100 µM | [3] > 100 µM | [4] > 100 µM | [5] > 100 µM | [6] 63.7 µM | [7] > 100 µM | [8] > 100 µM | [9] > 100 µM | [10] > 100 µM | [11] > 100 µM | [12] > 100 µM | [14] > 100 µM

CCOC(=O)/C(C#N)=C/c1[nH]c(C)c(C)c1C
inactive: [1] > 100 µM | [2] > 100 µM | [3] > 100 µM | [4] > 100 µM | [5] > 100 µM | [6] > 100 µM | [7] > 100 µM | [8] > 100 µM | [9] > 100 µM | [10] > 100 µM | [11] > 100 µM | [12] > 100 µM | [13] > 100 µM | [14] > 100 µM
